Where two headings read alike, the source gives them in different places.
Legend:
[1] = test system: T. cruzi infective form (amastigotes and trypomastigotes) (Tulahuen strain) in NIH-3T3 fibroblasts; assay: T. cruzi viability assay in NIH-3T3 fibroblasts; details: for viability at 80 µM / EC50: Trypanosoma cruzi, TULAHUEN, NIH3T3; for Trypanocidal activity class: class by % viability at 80 μM; for in vitro T. cruzi EC50 compared with benznidazole: infective form co-cultured in NIH-3T3 fibroblasts
[2] = biological target: T1, Trypanosoma cruzi glucokinase (TcGlcK) (Trypanosoma cruzi, UniProt Q4E4E1); assay: TcGlcK-HsΔG6PDH-diaphorase coupled assay, IC50 determination; assay type: biochemical
T1 construct: made in house
T1 sequence (Q4E4E1 1-376): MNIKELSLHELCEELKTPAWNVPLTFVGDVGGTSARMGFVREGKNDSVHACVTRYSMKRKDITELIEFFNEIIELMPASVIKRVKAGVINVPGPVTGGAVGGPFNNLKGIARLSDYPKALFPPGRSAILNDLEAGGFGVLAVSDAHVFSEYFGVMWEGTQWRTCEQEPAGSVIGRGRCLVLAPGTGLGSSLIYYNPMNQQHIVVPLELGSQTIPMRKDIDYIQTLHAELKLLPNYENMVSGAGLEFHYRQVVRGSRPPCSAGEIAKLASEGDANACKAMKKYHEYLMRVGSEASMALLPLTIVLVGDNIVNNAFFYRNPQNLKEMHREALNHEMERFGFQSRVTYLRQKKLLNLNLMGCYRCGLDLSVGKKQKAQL
Method: The TcGlcK assay was performed through its linking with the HsΔG6PDH-diaphorase enzyme-coupled assay system as schematically illustrated in FIG. 1. All of the compounds were tested in quadruplicate using the JANUS-MDT liquid handler equipped with a 384-tip head that was used to transfer 22 μL of a reagent mix [130 U/mL HsΔG6PDH, 100 mM NADP+, 1 kU/mL diaphorase, 10 mM resazurin, and 19 μM TcGlcK in a reaction buffer (see below)], 0.5 μL of 1 mM compounds in 100% DMSO (from the daughter plate, see above), and 2.5 μL of a substrate mix [4 mM D-glucose and 6 mM ATP in a reaction buffer] to a 384-well plate (total volume per well was 25 μL). The reaction buffer was 0.1 M triethanolamine (pH 8.5), 8.0 mM MgCl2, and 0.01% (v/v) Triton X-100. The final assay concentrations (FACs) were 0.5 U/mL HsΔG6PDH, 100 μM NADP+, 1 U/mL diaphorase, 20 μM resazurin, 2.5 nM TcGlcK, 20 μM compounds (from the daughter plate, see above), 0.4 mM D-glucose, 0.6 mM ATP, 0.1 M triethanolamine (pH 8.5), 8 mM MgCl2, and 0.01% (v/v) Triton X-100. […] The assay was carried out using 384-well, black, v-bottom microplates (Greiner Bio-One) with a final volume of 25 μL per well. Pipetting steps were performed with a liquid handler having a 384-tip head, JANUS-MDT from Perkin Elmer (Waltham, Mass.). Compounds that gave rise to TcGlcK enzyme activity in the presence of 20 μM compound (EA20) that results in less than 65%) were categorized as unconfirmed hits to proceed as candidates. The methodology is schematically illustrated in FIG. 2.
Determination of the IC50 values was performed by the TcGlcK—HsΔG6PDH—diaphorase coupled assay, in which reaction velocities were obtained at various concentrations of inhibitors. In 96-well plates, solutions of the inhibitors were prepared by serial dilution. Briefly, column 1 served as a control having an inhibitor concentration of zero; however, columns 2 through 12 on a given row had 11 different inhibitor concentrations from a serial dilution. Using the JANUS-MDT liquid handler with a 96-tip head, assay reactions were carried out in quadruplicate in a 384-well plate and the following components were transferred per well: 44 μL of a reagent mix [130 U/mL HsΔG6PDH, 100 mM NADP^+, 1 kU/mL diaphorase, 10 mM resazurin, and 19 μM TcGlcK in a reaction buffer (0.1 M triethanolamine (pH 8.5), 8.0 mM MgCl2, and 0.01% (v/v) Triton X-100)], 1 uL of 1 mM compound solutions in 100% DMSO, and 5 μL of a substrate mix [4 mM D-glucose and 6 mM ATP in the same reaction buffer]. The Envision microplate reader (PerkinElmer) was used to monitor the formation of resorufin in the fluorescence mode (λex=530 nm; λem=615 nm). Reaction velocities were measured and normalized by the controls. Values of IC50 were calculated using the GraphPad Prism 6.0 software from nonlinear regression of the data.

[3] = TcGlcK - inhibitor IC50, enzymatic coupled assay, read-out: IC50

For `COc1ccc(S(=O)(=O)Nc2cccc(SC)c2)cc1F` [Compound 1b], the viability at 80 µM [1] was 0%.

Compound `COc1ccc(S(=O)(=O)Nc2ccccc2)cc1F` [Compound 1l] has a viability at 80 µM [1] of 34.6 ± 4.3%.

Compound `Cc1cc2c(c(O)c1-c1c(C)cc3c(c1O)/C(=C/Nc1ccc(Cc4ccc(N)cc4)cc1)C(=O)C(O)=C3C(C)C)/C(=C/Nc1ccc(Cc3ccc(N)cc3)cc1)C(=O)C(O)=C2C(C)C` [Compound 6d] has an IC50 [2, 3] of 61.6 µM and a viability at 80 µM [1] of 63.3 ± 0.4%.

With `CCOc1ccc(S(=O)(=O)Nc2c(F)cccc2F)cc1Cl` [Compound 1i] the viability at 80 µM [1] was 4.9 ± 4.7%.

`COc1ccc(S(=O)(=O)Nc2ccc(Br)cc2F)cc1Cl` [Compound 1g] showed a viability at 80 µM [1] of 0%.

With `Cc1cc(N2CCOCC2)ccc1/C=C1/C(=O)NC(=O)N(c2ccc3c(c2)OCO3)C1=O` [Compound 2b] the IC50 [2] was 1.1 µM and the viability at 80 µM [1] was 57 ± 2.8%.

`COc1ccc(S(=O)(=O)Nc2cc(Cl)ccc2Cl)c(C)c1C` [Compound 1k] showed a viability at 80 µM [1] of 0%.

`Cc1cc2c(c(O)c1-c1c(C)cc3c(c1O)/C(=C/Nc1cccc4c(N)cccc14)C(=O)C(O)=C3C(C)C)/C(=C/Nc1cccc3c(N)cccc13)C(=O)C(O)=C2C(C)C` [Compound 6b] gave an IC50 [2, 3] of 16.5 µM and a viability at 80 µM [1] of 1.7 ± 2.7%.

`COc1ccc(S(=O)(=O)Nc2ccc(F)c(F)c2)cc1I` [Compound 1e] showed a viability at 80 µM [1] of 0%.

`O=C1NC(=O)C(=Cc2ccc(O)c(O)c2)C(=O)N1` [Compound 2g] gave an IC50 [2] of 4.2 µM and a viability at 80 µM [1] of 62.8 ± 11.6%.

In the case of `COc1ccc([C@@H]2Oc3ccccc3C=C2[N+](=O)[O-])cc1OC` [Compound 4c], the IC50 [2, 3] is reported as 53.2 µM and the viability at 80 µM [1] is reported as 0%.

In the case of `COc1ccc(C(=O)Nc2sc3c(c2C(N)=O)CCCCC3)cc1OC` [Compound 10], the viability at 80 µM [1] is reported as 50.5 ± 3.4%.

`COc1ccc(S(=O)(=O)Nc2cccc(Br)c2)c(Cl)c1Cl` [Compound 1a] showed an IC50 [2, 3] of 7.2 µM, an EC50 [1] of 13.3 ± 0.3 µM and a viability at 80 µM [1] of 0%. For the same compound, the Trypanocidal activity class [1] was “active”.

In the case of `CCOc1ccc([C@@H]2Oc3c(Cl)cc(Cl)cc3C=C2[N+](=O)[O-])cc1OCC` [Compound 4a], the IC50 [2, 3] is reported as 4.8 µM, the EC50 [1] is reported as 2.98 ± 0.227 µM and the viability at 80 µM [1] is reported as 0%. For the same compound, the Trypanocidal activity class [1] was “active” and the “in vitro T. cruzi EC50 compared with benznidazole” value [1] was “very similar in vitro T. cruzi EC50 values to that of benznidazole”.

With `O=C1NC(=O)C(=Cc2ccc3c(c2)OCO3)C(=O)N1` [Compound 2h] the IC50 [2] was 8.7 µM and the viability at 80 µM [1] was 81.2 ± 13.7%.

`CN1C(=O)C(=Cc2ccc(N(C)C)cc2)C(=O)N(C)C1=O` [Compound 2c] was tested, and the IC50 [2] was 5.5 µM and the viability at 80 µM [1] was 79 ± 4%.

For `Cc1cc2c(c(O)c1-c1c(C)cc3c(c1O)C(=CNc1ccc(S(=O)(=O)NC(=N)N)cc1)C(=O)C(O)=C3C(C)C)C(=CNc1ccc(S(=O)(=O)NC(=N)N)cc1)C(=O)C(O)=C2C(C)C` [Compound 6a], the IC50 [2, 3] was 13.2 µM, the EC50 [1] was 8.62 ± 0.493 µM and the viability at 80 µM [1] was 0%. The Trypanocidal activity class [1] was “active”.

`Nc1c(C(=O)c2cccc([N+](=O)O)c2)sc2nc(-c3cccnc3)ccc12` [Compound 9] showed a viability at 80 µM [1] of 52.7 ± 7.9%.

With `COc1ccc(Br)cc1/C=C1/C(=O)NC(=O)N(CCC2=CCCCC2)C1=O` [Compound 2d] the IC50 [2] was 13.7 µM and the viability at 80 µM [1] was 88.7 ± 15.1%.

Compound `O=S(=O)(Nc1ccc(O)cc1)c1cc(Cl)ccc1Cl` [Compound 1m] has a viability at 80 µM [1] of 0.6 ± 2.9%.

`O=[N+]([O-])C1=Cc2c(ccc3ccccc23)O[C@H]1c1ccc2c(c1)OCO2` [Compound 4e] showed a viability at 80 µM [1] of 0%.

`COc1cc(S(=O)(=O)Nc2cccc(Cl)c2C)c(C)cc1C` [Compound 1c] was tested, and the viability at 80 µM [1] was 0%.

Compound `COc1ccc(Br)cc1[C@H]1C(C#N)=C(N)Oc2c1c(C)nn2-c1ccccc1` [Compound 5a] has an IC50 [2, 3] of 18.8 µM and a viability at 80 µM [1] of 0%.

In the case of `c1ccc([C@@H]2CCCN2)nc1` [Compound 7], the viability at 80 µM [1] is reported as 84.3 ± 0.5%.

`O=C1NC(=O)C(=Cc2ccc(Br)s2)C(=O)N1` [Compound 2f] showed an IC50 [2] of 2.4 µM and a viability at 80 µM [1] of 74.2 ± 5.3%.

Compound `Cc1nn(-c2ccccc2)c2c1[C@@H](c1ccc(F)cc1)C(C#N)=C(N)O2` [Compound 5b] has an IC50 [2, 3] of 17.1 µM and a viability at 80 µM [1] of 87.1 ± 3.3%.

`COc1ccc(F)cc1S(=O)(=O)Nc1ccc(Cl)cc1` [Compound 1n] was tested, and the viability at 80 µM [1] was 2.4 ± 7.4%.

`CCOc1cc(S(=O)(=O)Nc2ccc(Cl)cc2)ccc1F` [Compound 1h] showed a viability at 80 µM [1] of 0%.

`O=C(O)C1Nc2c(I)cccc2C2C=CCC12` (stereo not drawn) [Compound 8] was tested, and the viability at 80 µM [1] was 44.3 ± 5.1%.

For `CCOc1ccc(S(=O)(=O)Nc2cccc(Cl)c2C)cc1C` [Compound 1j], the viability at 80 µM [1] was 0%.

`O=C1NC(=O)C(=Cc2ccc(N3CCOCC3)cc2)C(=O)N1` [Compound 2e] showed an IC50 [2] of 1.7 µM and a viability at 80 µM [1] of 88 ± 9.4%.

Work on `COc1ccc(S(=O)(=O)Nc2ccc3ccccc3c2)cc1Cl` [Compound 1f] yielded a viability at 80 µM [1] of 0%.

For `Cc1ccc(-n2nc(C)c3c2OC(N)=C(C#N)[C@H]3c2ccoc2)cc1` [Compound 5c], the viability at 80 µM [1] was 80.6 ± 3.9%.

In the case of `N#Cc1ccc(-c2cccnc2)nc1SCC(=O)O` [Compound 11], the viability at 80 µM [1] is reported as 86.5 ± 0.9%.

`CCOc1ccc([C@@H]2Oc3ccccc3C=C2[N+](=O)[O-])cc1OCC` [Compound 4d] showed an IC50 [2, 3] of 69.1 µM and a viability at 80 µM [1] of 0%.

Work on `CCOc1ccc([C@@H]2Oc3ccc(Br)cc3C=C2[N+](=O)[O-])cc1OC` [Compound 4b] yielded an IC50 [2, 3] of 6.5 µM, an EC50 [1] of 2.17 ± 0.045 µM and a viability at 80 µM [1] of 0%. The Trypanocidal activity class [1] was “active” and the “in vitro T. cruzi EC50 compared with benznidazole” value [1] was “very similar in vitro T. cruzi EC50 values to that of benznidazole”.

In the case of `Cc1cc2c(c(O)c1-c1c(C)cc3c(c1O)/C(=C/Nc1c(O)cc(S(=O)(=O)O)c4ccccc14)C(=O)C(O)=C3C(C)C)/C(=C/Nc1c(O)ccc3c(S(=O)(=O)O)cccc13)C(=O)C(O)=C2C(C)C` [Compound 6c], the IC50 [2, 3] is reported as 30.2 µM and the viability at 80 µM [1] is reported as 20.4 ± 10.3%.

`O=C1C(=Cc2ccco2)C(=O)N(c2ccccc2)C(=O)N1c1ccccc1` [Compound 2a] gave an IC50 [2] of 0.6 µM and a viability at 80 µM [1] of 66.5 ± 22.3%.

Compound `Cc1nn(-c2cccc(Cl)c2)c2c1[C@@H](c1cc([N+](=O)[O-])ccc1Cl)C(C#N)=C(N)O2` [Compound 5d] has a viability at 80 µM [1] of 0%.

Work on `COc1ccc(NS(=O)(=O)c2ccc(Cl)c(C)c2Cl)cc1` [Compound 1d] yielded a viability at 80 µM [1] of 0%.

Reference: US10682359B2, “Inhibitors of glucose kinases, along with methods of their formation and use” (University of South Carolina, priority 2017, dated 2020)
